Assay results as given in patent US20050009908A1, “Aqueous dispersion comprising stable nonoparticles of a water-insoluble active and an excipient like middle chain triglycerides (mct)” (priority 2001, published 2005).
In brackets after ≈: the same amount, converted by molar mass. Like-named read-outs stand apart in the source and are kept apart here.

Test: Solubility of crystalline substance in the inhibitor (HPLC of saturated solution)
Assay type: physicochemical
From the text: The mole fraction solubility of the crystalline substantially water-insoluble substance in the inhibitor (x^S1) is simply the number of moles of substance per mole of inhibitor present in a saturated solution of the substance in the inhibitor. As will be realized the equation above is derived for a two component system of a substance and an inhibitor. In those systems where the inhibitor contains more than one compound (for example in the case of a medium chain triglyceride comprising a mixture of triglycerides such as Miglyol 812N, or where a mixture of inhibitors is used) it is sufficient to calculate x^S1 in terms of the “apparent molarity” of the mixture of inhibitors. The apparent molarity of such a mixture is calculated for a mixture of n inhibitor components to be: [formula] • wherein: a, b . . . n are the weight fraction of each component in the inhibitor mixture (for example for component a this is %w/w component a/100); and • Mwa . . . Mwn is the molecular weight of each component a . . . n in the mixture. • x^S1 is then calculated as: [formula]
The mole-fraction solubility of the felodipine/Miglyol 812N (x^sl in Equation I) was determined by magnetically stirring an excess of crystalline felodipine (approx 2-5 times that required for a saturated solution) in Miglyol 812N (5-25 ml) at 350 rpm (protected from light and sealed under a nitrogen atmosphere) for 2 days at room temperature. The resulting mixture was filtered to remove solids (0.2 μm filter) and then analyzed using BPLC to determine the quantity of felodipine dissolved in the Miglyol 812N. […] Miglyol 812N is a mixture of approximately 60% C8-triglyceride (Mw 471) and 40% C10-triglyceride (Mw 555) and has a density of approximately 0.945 g/cm^3. Thus, the apparent molarity of Miglyol 812N is 945/(0.6*471+0.4*555)=1.9].

[1] = oil or lipid, thermodynamic from solid

For `CCc1cccc(C)c1CNc1cc(C(N)=O)cn2c(C)c(C)nc12` [8-[(2-ethyl-6-methylbenzyl)amino]-2,3-dimethylimidazo[1,2-a]pyridine-6-carboxamide], the “mole fraction solubility in Miglyol 812N” value was 0.00116, the “mole fraction solubility in Miglyol 812N/1-decanol mixture” value was 0.0103 and the solubility [1] was 37 mM (≈ 12.4 mg/mL). The solubility at 2 days [1] was 2.2 mM (≈ 0.74 mg/mL).

With `CCOC(=O)C1=C(C)NC(C)=C(C(=O)OC)C1c1cccc(Cl)c1Cl` (centres unmarked) [felodipine] the solubility at 2 days (Miglyol 812N (medium chain triglyceride mixture), oil or lipid, thermodynamic from solid, room temperature, 2 days stirring, read-out: solubility in Miglyol 812N) was 69 mM (≈ 26.5 mg/mL).
